Assay results: ChEMBL document CHEMBL5325414, “Novel neuroprotective pyromeconic acid derivatives with concurrent anti-Aβ deposition, anti-inflammatory, and anti-oxidation properties for treatment of Alzheimer's disease” (Eur J Med Chem, 2023)
pIC50: −log10 of the molar value. Active and inactive are the calls of the source. The calls are words filed in the database; no cut-off is given here.

How the values were obtained:
[1] = Antioxidant activity by measuring oxygen radical absorbance capacity-fluorescein values; format: functional
[2] = biological target: T1, Amyloid-beta precursor protein (Homo sapiens, UniProt P05067); test: Inhibition of amyloid beta (1 to 42) (unknown origin) self aggregation
T1 sequence (P05067 whole entry): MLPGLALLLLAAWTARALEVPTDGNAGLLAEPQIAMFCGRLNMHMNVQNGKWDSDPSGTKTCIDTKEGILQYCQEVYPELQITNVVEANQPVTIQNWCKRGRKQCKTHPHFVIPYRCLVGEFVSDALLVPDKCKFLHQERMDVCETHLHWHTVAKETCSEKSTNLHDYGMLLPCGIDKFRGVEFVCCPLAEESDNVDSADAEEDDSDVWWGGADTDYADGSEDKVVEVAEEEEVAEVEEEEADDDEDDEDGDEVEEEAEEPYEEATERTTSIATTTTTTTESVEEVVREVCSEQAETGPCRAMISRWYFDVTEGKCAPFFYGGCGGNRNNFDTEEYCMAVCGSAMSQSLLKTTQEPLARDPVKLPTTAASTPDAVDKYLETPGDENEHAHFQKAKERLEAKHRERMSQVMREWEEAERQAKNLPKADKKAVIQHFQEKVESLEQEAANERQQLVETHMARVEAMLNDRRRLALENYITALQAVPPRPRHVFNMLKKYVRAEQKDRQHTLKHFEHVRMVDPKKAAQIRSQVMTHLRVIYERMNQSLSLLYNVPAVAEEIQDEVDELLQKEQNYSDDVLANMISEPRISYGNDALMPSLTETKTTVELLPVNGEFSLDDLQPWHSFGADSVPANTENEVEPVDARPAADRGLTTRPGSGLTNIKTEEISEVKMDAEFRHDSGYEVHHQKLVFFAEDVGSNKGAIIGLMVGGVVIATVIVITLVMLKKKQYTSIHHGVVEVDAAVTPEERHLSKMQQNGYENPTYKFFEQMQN

[3] = biological target: T1, Amyloid-beta precursor protein; test: Inhibition of amyloid beta (1 to 42) (unknown origin) self aggregation assessed as disaggregation
[4] = Metal chelating activity assessed as compound-Na+ complex formation by optical shift at 50 uM in PBS buffer 7.4 by UV-vis spectrometric analysis
[5] = Metal chelating activity assessed as compound-K+ complex formation by optical shift at 50 uM in PBS buffer 7.4 by UV-vis spectrometric analysis
[6] = biological target: T1, Amyloid-beta precursor protein; test: Inhibition of amyloid beta (1 to 42) (unknown origin) self aggregation assessed as shorter in amyloid fibrils compound addition at 50 uM after fibrilation for 24 hrs
BV-2 [7] = test: Neuroprotective activity against amyloid beta (1 to 42) induced neurotoxicity in mouse BV-2 cells assessed as survival of cells at 10 uM treated for 24 hrs relative to control; format: functional
BV-2 [8] = test: Effect of amyloid beta (1 to 42) indued apoptosis in mouse BV-2 cells assessed as early apoptotic cells at 2.5 uM measured by propidium iodide staining based flow cytometric analysis (reference value: 26.12%); format: functional
BV-2 [9] = test: Effect of amyloid beta (1 to 42) indued apoptosis in mouse BV-2 cells assessed as late apoptotic cells at 2.5 uM measured by propidium iodide staining based flow cytometric analysis (reference value: 6.88%); format: functional
BV-2 [10] = test: Effect on H2O2 induced reactive oxygen species in mouse BV-2 cells assessed as reduction of ROS generation at 5 uM by fluorescence microscopic analysis relative to control; format: functional; parameters: scale not given: the % may be the effect or the level left
[11] = Half life in Sprague-Dawley rat at 15 mg/kg, IG; format: ADME, organism-based; settings: in vivo, po
[12] = AUC(0 to t) in Sprague-Dawley rat at 15 mg/kg, IG; format: ADME, organism-based; parameters: dose 15 mg/kg, route ig; settings: in vivo, po
[13] = Clearance in Sprague-Dawley rat at 15 mg/kg, IG; format: ADME, organism-based; settings: in vivo, po
[14] = Drug concentration in plasma of Sprague-Dawley rat at 15 mg/kg, IG measured after 0.25 hrs; format: ADME, organism-based; settings: po
[15] = Drug concentration in plasma of Sprague-Dawley rat at 15 mg/kg, IG measured after 0.5 hrs; format: ADME, organism-based; settings: po
[16] = Drug concentration in plasma of Sprague-Dawley rat at 15 mg/kg, IG measured after 4 hrs; format: ADME, organism-based; settings: po
[17] = Drug concentration in hippocampus of Sprague-Dawley rat at 15 mg/kg, IG measured after 0.25 hrs; format: ADME, organism-based; settings: po, read-out: Drug uptake
[18] = Drug concentration in hippocampus of Sprague-Dawley rat at 15 mg/kg, IG measured after 0.5 hrs; format: ADME, organism-based; settings: po, read-out: Drug uptake
[19] = Drug concentration in hippocampus of Sprague-Dawley rat at 15 mg/kg, IG measured after 1 hrs; format: ADME, organism-based; settings: po, read-out: Drug uptake
[20] = Drug concentration in hippocampus of Sprague-Dawley rat at 15 mg/kg, IG measured after 4 hrs; format: ADME, organism-based; settings: po, read-out: Drug uptake
[21] = Ratio of drug concentration in hippocampus to plasma of Sprague-Dawley rat at 15 mg/kg, IG measured after 0.083 hrs; format: ADME, organism-based; settings: po
[22] = Ratio of drug concentration in hippocampus to plasma of Sprague-Dawley rat at 15 mg/kg, IG measured after 1 hrs; format: ADME, organism-based; settings: po
[23] = Acute toxicity in mouse assessed as change in dietary activity at 2000 mg/kg, IG administered as single dose measured after 14 days; format: organism-based; settings: in vivo, po, 336 h, time 14 day
[24] = Acute toxicity in mouse assessed as histopathological change in heart at 2000 mg/kg, IG administered as single dose measured after 14 days measured by H and E staining analysis; format: organism-based; settings: in vivo, po, 336 h, time 14 day
[25] = Acute toxicity in mouse assessed as histopathological change in liver at 2000 mg/kg, IG administered as single dose measured after 14 days measured by H and E staining analysis; format: organism-based; settings: in vivo, po, 336 h, time 14 day
Mus musculus [26] = test: Cognitive enhancement in scopolamine induced ICR alzheimer's disease mouse assessed as gain in body weight pretreated with scopolamine at 3 mg/kg, ip for 31 days followed by compound addition at 20 mg/kg, po at day 7 to 31; format: functional, organism-based; settings: time 25.0 day
Mus musculus [27] = test: Anti alzheimer activity in scopolamine induced anxiety in ICR mouse assessed as improved exploratory activity pretreated with scopolamine at 3 mg/kg, ip for 31 days followed by compound addition at 20 mg/kg, po at day 7 to 31; format: functional, organism-based; settings: time 25.0 day
Mus musculus [28] = test: Anti alzheimer activity in scopolamine induced anxiety in ICR mouse assessed as increase in crossing time by measuring escape latency pretreated with scopolamine at 3 mg/kg, ip for 31 days followed by compound addition at 20 mg/kg, po at day 7 to 31 by morris water maze test; format: functional, organism-based; settings: time 25.0 day
Mus musculus [29] = test: Anti alzheimer activity in scopolamine induced anxiety in ICR mouse assessed as decrease in chaotic behaviour pretreated with scopolamine at 3 mg/kg, ip for 31 days followed by compound addition at 20 mg/kg, po at day 7 to 31 by morris water maze test; format: functional, organism-based; settings: time 25.0 day
Mus musculus [30] = test: Anti alzheimer activity in scopolamine induced anxiety in ICR mouse assessed as decrease in motor trajectories pretreated with scopolamine at 3 mg/kg, ip for 31 days followed by compound addition at 20 mg/kg, po at day 7 to 31 by morris water maze test; format: functional, organism-based; settings: time 25.0 day
Mus musculus [31] = test: Anti alzheimer activity in scopolamine induced anxiety in ICR mouse assessed as improved memory function pretreated with scopolamine at 3 mg/kg, ip for 31 days followed by compound addition at 20 mg/kg, po at day 7 to 31 by morris water maze test; format: functional, organism-based; settings: time 25.0 day
Mus musculus [32] = test: Anti alzheimer activity in scopolamine induced anxiety in ICR mouse assessed as improved cognitive function pretreated with scopolamine at 3 mg/kg, ip for 31 days followed by compound addition at 20 mg/kg, po at day 7 to 31 by morris water maze test; format: functional, organism-based; settings: time 25.0 day
Mus musculus [33] = test: Neuroprotective effect in scopolamine induced cognitively impaired mouse assessed as recovery of decreased Nissl bodies in CA1 region at hippocampus at 20 mg/kg by Nissl staining analysis; format: functional, organism-based
Mus musculus [34] = test: Neuroprotective effect in scopolamine induced cognitively impaired mouse assessed as recovery of decreased Nissl bodies in CA3 region at hippocampus at 20 mg/kg by Nissl staining analysis; format: functional, organism-based
Mus musculus [35] = test: Neuroprotective effect in scopolamine induced cognitively impaired mouse assessed as decrease in neuronal damage in CA1 region at hippocampus at 20 mg/kg by immunofluorescence staining analysis; format: functional, organism-based
Mus musculus [36] = test: Antioxidant activity in scopolamine induced cognitive impaired mouse assessed as reversal of HO-1 level in cortex at 20 mg/kg; format: functional, organism-based
Mus musculus [37] = test: In vivo effect on HO-1 expression in scopolamine induced cognitive impaired mouse assessed as reversal of NRF2 signalling in hippocampus treated at 20 mg/kg by immunoblot analysis; format: functional, organism-based
Mus musculus [38] = test: In vivo antiinflammatory activity in scopolamine induced cognitive impaired ICR mouse assessed as decrease in IL-1 levels in cortex; format: functional, organism-based
Mus musculus [39] = test: In vivo antiinflammatory activity in scopolamine induced cognitive impaired ICR mouse assessed as decrease in GFAP levels in cortex; format: functional, organism-based
Mus musculus [40] = test: In vivo antiinflammatory activity in scopolamine induced cognitive impaired ICR mouse assessed as decrease in GFAP levels in hippocampus by immunoblot analysis; format: functional, organism-based

In the case of `O=c1ccoc(/C=C/c2ccc(O)c(O)c2)c1O`, the Activity index [1] was 2.65, the pIC50 [2] was 4.95 and the pIC50 [3] was 5.16. The Activity [4] was “inactive”, the Activity [5] was “inactive” and the Activity [6] was “Active”. For the same compound, the Activity (BV-2 [7]) was 75.5%, the Activity (BV-2 [8]) was 13.4% and the Activity (BV-2 [9]) was 10.2%. The Activity (BV-2 [10]) was 19.45%, the half-life [11] was 14 h and the AUC(0-t) [12] was 24.4 ng·h/mL. For the same compound, the CL/F [13] was 481 L/h/kg, the concentration at 0.25 h [14] was 5.32 ng/mL and the concentration at 0.5 h [15] was 2.68 ng/mL. It also gave a concentration at 4 h [16] of 0.95 ng/mL, a concentration at 0.25 h [17] of 2.57 ng/mL and a concentration at 0.5 h [18] of 5.4 ng/mL. The concentration at 1 h [19] was 8.72 ng/mL, the concentration at 4 h [20] was 4.89 ng/mL and the Kp at 0.083 h [21] was 0.07. The Kp at 1 h [22] was 5.04, the Activity [23] was “Non-Toxic” and the Activity [24] was “Non-Toxic”. The Activity [25] was “Non-Toxic”, the Activity (Mus musculus [26]) was “Active” and the Activity (Mus musculus [27]) was “Active”. For the same compound, the Activity (Mus musculus [28]) was “Active”, the Activity (Mus musculus [29]) was “Active” and the Activity (Mus musculus [30]) was “Active”. For the same compound, the Activity (Mus musculus [31]) was “Active”, the Activity (Mus musculus [32]) was “Active” and the Activity (Mus musculus [33]) was “Active”. The Activity (Mus musculus [34]) was “Active”, the Activity (Mus musculus [35]) was “Active” and the Activity (Mus musculus [36]) was “Active”. For the same compound, the Activity (Mus musculus [37]) was “Active”, the Activity (Mus musculus [38]) was “Active” and the Activity (Mus musculus [39]) was “Active”. The Activity (Mus musculus [40]) was “Active”.
